Source: ChEMBL document CHEMBL1132891, “Carbacyclic peptide mimetics as VCAM-VLA-4 antagonists” (Bioorg Med Chem Lett, 2000)

target: T1, Integrin alpha-4 (Homo sapiens, UniProt P13612); experiment: Inhibitory concentration against VLA-4 receptor using human VCAM-VLA-4 binding assay
T1 sequence (P13612 whole entry): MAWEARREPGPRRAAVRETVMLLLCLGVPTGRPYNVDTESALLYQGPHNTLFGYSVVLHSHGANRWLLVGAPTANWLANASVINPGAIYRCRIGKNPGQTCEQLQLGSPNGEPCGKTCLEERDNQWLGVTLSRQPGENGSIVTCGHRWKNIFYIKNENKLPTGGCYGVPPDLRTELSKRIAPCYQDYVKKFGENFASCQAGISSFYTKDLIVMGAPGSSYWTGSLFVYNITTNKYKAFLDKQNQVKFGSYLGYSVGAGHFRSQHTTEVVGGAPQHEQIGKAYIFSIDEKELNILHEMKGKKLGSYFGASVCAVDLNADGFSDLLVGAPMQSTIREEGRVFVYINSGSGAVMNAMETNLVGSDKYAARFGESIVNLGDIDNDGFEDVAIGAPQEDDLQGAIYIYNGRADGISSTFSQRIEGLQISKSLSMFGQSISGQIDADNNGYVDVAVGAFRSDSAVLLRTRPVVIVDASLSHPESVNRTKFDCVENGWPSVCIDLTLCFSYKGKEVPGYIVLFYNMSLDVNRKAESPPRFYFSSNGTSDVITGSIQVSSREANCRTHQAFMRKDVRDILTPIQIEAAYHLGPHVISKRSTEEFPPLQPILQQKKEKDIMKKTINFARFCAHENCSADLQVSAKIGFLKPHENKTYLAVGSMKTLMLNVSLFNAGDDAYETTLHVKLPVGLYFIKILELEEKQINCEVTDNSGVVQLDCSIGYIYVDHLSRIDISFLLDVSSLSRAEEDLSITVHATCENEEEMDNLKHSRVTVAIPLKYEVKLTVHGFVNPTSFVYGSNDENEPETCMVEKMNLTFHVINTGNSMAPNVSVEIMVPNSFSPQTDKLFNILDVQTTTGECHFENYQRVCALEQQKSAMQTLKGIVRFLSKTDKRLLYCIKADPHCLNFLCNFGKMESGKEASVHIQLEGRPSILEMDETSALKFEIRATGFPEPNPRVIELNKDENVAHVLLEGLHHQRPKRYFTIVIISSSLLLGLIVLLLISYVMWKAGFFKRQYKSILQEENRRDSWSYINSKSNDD

SMILES	IC50
N[C@@H](Cc1ccc(O)cc1)C(=O)NC1CCCC[C@@H](C(=O)O)NC(=O)C2(CCCC2)CCNC1=O (stereo in doubt; 15a)	89 nM
N[C@@H](Cc1ccc(O)cc1)C(=O)NC1CCCCC[C@@H](C(=O)O)NC(=O)C2(CCCC2)CCNC1=O (stereo in doubt; 15b)	750 nM
N[C@@H](Cc1ccc(O)cc1)C(=O)NC1CCCC[C@@H](C(=O)O)NC(=O)C2(CCCC2)CCNC1=O (stereo in doubt; 14a)	44 nM
N[C@@H](Cc1ccc(O)cc1)C(=O)NC1CCCCC[C@@H](C(=O)O)NC(=O)C2(CCCC2)CCNC1=O (stereo in doubt; 14b)	550 nM
N[C@@H](Cc1ccc(O)cc1)C(=O)N/C1=C/CCCC[C@@H](C(=O)O)NC(=O)C2(CCCC2)CCNC1=O	330 nM
N[C@@H](Cc1ccc(O)cc1)C(=O)N[C@H]1CSSC[C@@H](C(=O)O)NC(=O)C2(CCCC2)CCNC1=O	0.5 nM
N[C@@H](Cc1ccc(O)cc1)C(=O)N/C1=C/CCC[C@@H](C(=O)O)NC(=O)C2(CCCC2)CCNC1=O	160 nM
